Laboratory results from ChEMBL document CHEMBL5576065, “Identification of highly potent and selective HTRA1 inhibitors” (Bioorg Med Chem Lett, 2024).
pIC50: −log10 of the molar value. The source made the active and inactive calls. The rule behind the calls is not given here. Square brackets hold non-standard residues; d marks the D form. Peptide text beside a SMILES is read from it. * marks the point of attachment. hMet = CSCCC[C@H](N)C(=O)O; X1 = CC(C)[C@H](N*)B(O)O

Columns and labels:
Serine protease HTRA1 [1] = molecular target: T1, Serine protease HTRA1 (Homo sapiens, UniProt Q92743); assay: Inhibition of HTRA1 (unknown origin)
T1 sequence (Q92743 whole entry): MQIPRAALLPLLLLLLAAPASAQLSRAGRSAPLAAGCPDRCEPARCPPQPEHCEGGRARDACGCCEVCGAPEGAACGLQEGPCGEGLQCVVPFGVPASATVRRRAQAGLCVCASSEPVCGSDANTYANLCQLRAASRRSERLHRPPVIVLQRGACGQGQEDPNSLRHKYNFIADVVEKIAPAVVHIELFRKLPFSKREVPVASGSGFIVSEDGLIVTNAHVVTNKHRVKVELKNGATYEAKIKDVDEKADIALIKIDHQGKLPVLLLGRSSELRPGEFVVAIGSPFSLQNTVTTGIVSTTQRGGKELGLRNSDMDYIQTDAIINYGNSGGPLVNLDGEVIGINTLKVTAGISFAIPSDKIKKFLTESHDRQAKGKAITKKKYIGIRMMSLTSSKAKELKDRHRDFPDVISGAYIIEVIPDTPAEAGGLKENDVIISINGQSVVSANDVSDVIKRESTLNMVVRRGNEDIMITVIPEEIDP

Caspase-9 (Homo sapiens) = molecular target: T2, Caspase-9 (Homo sapiens) (UniProt P55211); assay: Inhibition of Caspase-9 (unknown origin) at 1 uM
T2 sequence (whole entry): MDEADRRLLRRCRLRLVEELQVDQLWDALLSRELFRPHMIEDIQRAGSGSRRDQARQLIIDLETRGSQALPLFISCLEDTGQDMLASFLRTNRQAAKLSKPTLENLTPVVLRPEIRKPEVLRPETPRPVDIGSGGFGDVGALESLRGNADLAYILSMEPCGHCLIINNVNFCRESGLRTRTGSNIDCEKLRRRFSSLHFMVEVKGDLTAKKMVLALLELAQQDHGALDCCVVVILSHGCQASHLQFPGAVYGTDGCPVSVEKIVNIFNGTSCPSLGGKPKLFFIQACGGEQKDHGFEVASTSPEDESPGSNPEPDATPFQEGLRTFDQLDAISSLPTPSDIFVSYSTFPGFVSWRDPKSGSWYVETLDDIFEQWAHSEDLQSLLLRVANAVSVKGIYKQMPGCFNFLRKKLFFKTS

[2] = molecular target: Chymotrypsin (Homo sapiens) (UniProt Q99895+P17538+P40313+Q6GPI1); assay: Inhibition of chymotrypsin (unknown origin) at 1 uM; assay type: protein assay
[3] = molecular target: Kallikrein-7 (Homo sapiens) (UniProt P49862); assay: Inhibition of kallikrein-7 (unknown origin) at 1 uM
Kallikrein-7 (Homo sapiens), sequence (P49862 30-253 limits assumed): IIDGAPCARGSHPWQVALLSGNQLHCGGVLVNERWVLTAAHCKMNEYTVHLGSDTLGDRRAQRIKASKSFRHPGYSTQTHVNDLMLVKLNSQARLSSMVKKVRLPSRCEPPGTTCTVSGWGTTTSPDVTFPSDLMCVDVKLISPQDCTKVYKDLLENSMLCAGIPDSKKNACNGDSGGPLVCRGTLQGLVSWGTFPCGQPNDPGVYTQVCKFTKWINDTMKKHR

Serine protease HTRA1 [4] = molecular target: T1, Serine protease HTRA1; assay: Inhibition of HTRA1 (unknown origin) assessed as residual activity at 1 uM relative to control
Caspase-6 (Homo sapiens) = molecular target: T3, Caspase-6 (Homo sapiens) (UniProt P55212); assay: Inhibition of Caspase-6 (unknown origin) at 1 uM
T3 sequence (whole entry): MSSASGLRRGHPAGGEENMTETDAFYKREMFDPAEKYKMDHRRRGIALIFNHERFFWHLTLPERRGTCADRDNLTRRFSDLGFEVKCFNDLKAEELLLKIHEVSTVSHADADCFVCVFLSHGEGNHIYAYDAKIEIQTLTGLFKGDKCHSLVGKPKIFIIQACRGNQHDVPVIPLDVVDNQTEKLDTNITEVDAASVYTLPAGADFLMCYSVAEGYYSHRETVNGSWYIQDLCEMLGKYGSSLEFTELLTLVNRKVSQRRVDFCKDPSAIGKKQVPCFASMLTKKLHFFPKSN

Row | pIC50 (Serine protease HTRA1 [1]) | Structure (SMILES) | also measured
1 | 5.31 | CC(C)C[C@H](NC(=O)[C@H](Cc1cccc(Cl)c1)NCCCc1ccccc1)C(=O)N[C@H](B(O)O)C(C)C | –
2 | 8.00 | CC(C)C[C@H](NC(=O)[C@H](Cc1cccc(Cl)c1)NC(=O)OCc1ccccc1)C(=O)N[C@H](B(O)O)C(C)C | inhibition (Caspase-9 (Homo sapiens)): inactive; inhibition [2]: inactive; inhibition [3]: inactive; Activity (Serine protease HTRA1 [4]): 0%; inhibition (Caspase-6 (Homo sapiens)): inactive
3 | 6.33 | CC(C)C[C@H](NC(=O)[C@H](CC1CCCCC1)NC(=O)OCc1ccccc1)C(=O)N[C@H](B(O)O)C(C)C | –
4 | 7.14 | CC(C)C[C@H](NC(=O)[C@H](Cc1ccc(Cl)cc1)NC(=O)OCc1ccccc1)C(=O)N[C@H](B(O)O)C(C)C | –
5 | 5.59 | CSCCC[C@H](NC(=O)[C@@H]1CCCN1C(=O)[C@@H](N)CC(=O)O)C(=O)N[C@@H](Cc1ccccc1)C(=O)N[C@@H](CCCCN)C(=O)N[C@@H](CC(C)C)C(=O)N[C@H](B(O)O)C(C)C (H-DP[hMet]FKL-X1) | –
6 | 7.35 | Cc1cccc(C[C@H](NC(=O)OCc2ccccc2)C(=O)N[C@@H](CC(C)C)C(=O)N[C@H](B(O)O)C(C)C)c1 | –
7 | 7.89 | CC(C)C[C@H](NC(=O)[C@H](Cc1cccc(Cl)c1)NC(=O)C(C)(C)Cc1ccccc1)C(=O)N[C@H](B(O)O)C1CCC1 | inhibition (Caspase-9 (Homo sapiens)): inactive; inhibition [2]: inactive; inhibition [3]: inactive; Activity (Serine protease HTRA1 [4]): 0%; inhibition (Caspase-6 (Homo sapiens)): inactive
8 | 5.72 | CCCCC[C@H](NC(=O)OCc1ccccc1)C(=O)N[C@@H](CC(C)C)C(=O)N[C@H](B(O)O)C(C)C | –
9 | 5.81 | CC(C)C[C@H](NC(=O)[C@H](Cc1cc[n+]([O-])cc1)NC(=O)OCc1ccccc1)C(=O)N[C@H](B(O)O)C(C)C | –
10 | 6.18 | CC(C)C[C@H](NC(=O)[C@H](Cc1ccc[n+]([O-])c1)NC(=O)OCc1ccccc1)C(=O)N[C@H](B(O)O)C(C)C | –
11 | 6.39 | CC(C)C[C@H](NC(=O)[C@H](Cc1ccccc1)NC(=O)OCc1ccccc1)C(=O)N[C@H](B(O)O)C(C)C | –
12 | 4.81 | CC(C)C[C@H](NC(=O)[C@H](CCCCN)NC(=O)OCc1ccccc1)C(=O)N[C@H](B(O)O)C(C)C | –
13 | 7.06 | CC(C)C[C@H](NC(=O)[C@H](Cc1cccc(F)c1)NC(=O)OCc1ccccc1)C(=O)N[C@H](B(O)O)C(C)C | –
14 | 6.98 | CC(C)C[C@H](NC(=O)[C@H](Cc1cccc(Cl)c1)NC(=O)CCc1ccccc1)C(=O)N[C@H](B(O)O)C(C)C | –
15 | 6.31 | CC(C)C[C@H](NC(=O)[C@H](Cc1cccc(Cl)c1)NC(=O)NCc1ccccc1)C(=O)N[C@H](B(O)O)C(C)C | –
16 | 7.96 | CC(C)C[C@H](NC(=O)[C@H](Cc1cccc(Cl)c1)NC(=O)C(C)(C)Cc1ccccc1)C(=O)N[C@H](B(O)O)C(C)C | –
17 | 7.77 | CC(C)C[C@H](NC(=O)[C@H](Cc1cccc(Br)c1)NC(=O)OCc1ccccc1)C(=O)N[C@H](B(O)O)C(C)C | –
